Nine molecules from patent publication US8470810B2, “Heterocyclic compounds suitable for treating disorders that respond to modulation of the dopamine D3 receptor” (Abbott GmbH & Co. KG, priority 2004, dated 2013) can be followed below.

Assay [1] addresses T1, human dopamine D2L receptors (long isoform) (Homo sapiens, UniProt P14416).
T1 construct: expressed in transfected cells
Briefly: Dopamine D2L receptor binding, displacement of [125I] iodospiperone. Conditions: membranes of HEK-293 cells stably expressing human D2L; 0.01 nM [125I] iodospiperone; 25° C., 60 minutes; read-out: Ki(D2)*. Summed up:
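Displacement of [125I]iodospiperone from human D2L receptors, triplicates, in 50 mM Tris pH 7.4 with 120 mM NaCl, 5 mM KCl, 2 mM CaCl2, 2 mM MgCl2, 0.1% BSA. Incubated 60 min at 25 °C, then filtered and counted by scintillation. Ki came from iterative nonlinear regression of inhibition curves.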

Assay [2] has as its target T2, human dopamine D3 receptors (Homo sapiens, UniProt P35462).
T2 construct: expressed in transfected cells
Put plainly: Dopamine D3 receptor binding, displacement of [125I]-iodosulpride. Conditions: for Ki: membranes of HEK-293 cells stably expressing human D3, 0.1 nM [125I]-iodosulpride, 25° C., 60 minutes; for Ki(D2)*/Ki(D3)*: selectivity ratio of the receptor binding constants D2 over D3. Summed up:
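Displacement of [125I]-iodosulpride at human D3 receptors in pH 7.4 Tris buffer with NaCl, KCl, CaCl2, MgCl2, 0.1% BSA, 10 μM quinolone and 0.1% ascorbic acid, 60 min at 25 °C, in triplicate. Bound label collected by filtration and counted; Ki from nonlinear regression of inhibition curves.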

T1 sequence (P14416 whole entry, canonical isoform): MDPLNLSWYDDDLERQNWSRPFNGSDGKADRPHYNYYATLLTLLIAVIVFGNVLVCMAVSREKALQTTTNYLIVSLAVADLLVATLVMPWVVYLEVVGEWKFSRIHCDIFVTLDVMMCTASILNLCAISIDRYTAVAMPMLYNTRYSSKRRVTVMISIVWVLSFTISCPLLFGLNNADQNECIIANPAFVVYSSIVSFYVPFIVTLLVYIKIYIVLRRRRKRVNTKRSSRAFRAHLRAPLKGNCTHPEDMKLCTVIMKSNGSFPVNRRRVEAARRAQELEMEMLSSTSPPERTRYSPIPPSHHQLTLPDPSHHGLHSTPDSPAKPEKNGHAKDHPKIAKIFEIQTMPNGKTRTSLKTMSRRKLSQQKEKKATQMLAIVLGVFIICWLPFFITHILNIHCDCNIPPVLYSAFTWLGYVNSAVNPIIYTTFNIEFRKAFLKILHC
T2 sequence (P35462 whole entry): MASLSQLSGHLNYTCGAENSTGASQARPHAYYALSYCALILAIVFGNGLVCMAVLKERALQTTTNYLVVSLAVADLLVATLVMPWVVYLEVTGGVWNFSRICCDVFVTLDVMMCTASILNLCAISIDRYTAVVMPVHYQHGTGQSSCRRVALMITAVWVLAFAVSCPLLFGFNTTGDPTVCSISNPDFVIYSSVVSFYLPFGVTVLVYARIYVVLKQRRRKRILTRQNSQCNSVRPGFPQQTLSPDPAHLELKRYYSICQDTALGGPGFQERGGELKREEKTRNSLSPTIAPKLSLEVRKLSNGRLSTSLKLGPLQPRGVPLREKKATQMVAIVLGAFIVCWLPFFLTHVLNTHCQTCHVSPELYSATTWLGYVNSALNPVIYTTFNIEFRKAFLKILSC

Broadly, the Ki is the dissociation constant of the complex between target and ligand, obtained from inhibition or displacement. As to `C=Cc1ccc(S(=O)(=O)Nc2ccc([C@@H]3CCN(CCC)C3)cc2)cc1` [Example 123, N-[4-((S)-1-Propyl-pyrrolidin-3-yl)-phenyl]-4-vinyl-benzenesulfonamide], the Ki in assay [1] came to 41 nM; in assay [2], 0.45 nM. For the same molecule, the “Ki(D2)*/Ki(D3)*” value in assay [2] is given as 91.

Consider `CCCN1CC[C@@H](c2ccc(NS(=O)(=O)c3ccc(F)cc3)cc2)C1.Cl` [Example 125, 4-Fluoro-N-[4-((S)-1-propyl-pyrrolidin-3-yl)-phenyl]-benzenesulfonamide hydrochloride], for which the figures for the Ki in assay [1] and in assay [2] were 1300 nM and 19.5 nM, respectively. Further, the “Ki(D2)*/Ki(D3)*” value in assay [2] is given as 67.

With `CCCN1CC[C@@H](c2ccc(NS(=O)(=O)c3ccc(F)c(F)c3)cc2)C1.Cl` [Example 126, 3,4-Difluoro-N-[4-((S)-1-propyl-pyrrolidin-3-yl)-phenyl]-benzenesulfonamide hydrochloride], the Ki in assay [1] turned out to be 1020 nM. Also, in assay [2], the affinity corresponds to a Ki of 34 nM and the “Ki(D2)*/Ki(D3)*” value came out at 30.

In the case of `CCCN1CC[C@@H](c2ccc(NS(=O)(=O)c3ccc(N4CCC(F)(F)C4)cc3)cc2)C1` [Example 127, 4-(3,3-Difluoro-pyrrolidin-1-yl)-N-[4-((S)-1-propyl-pyrrolidin-3-yl)-phenyl]-benzenesulfonamide], the Ki in assay [1] came to 64.7 nM. In addition, in assay [2], the Ki worked out at 0.6 nM and the “Ki(D2)*/Ki(D3)*” value turned out to be 112.

With `CC(C)c1ccc(S(=O)(=O)Nc2ccc(C3CCN(Cc4ccccc4)C3)c(F)c2)cc1` (stereo not drawn) [Example 128, N-[4-(1-Benzyl-pyrrolidin-3-yl)-3-fluoro-phenyl]-4-isopropyl-benzenesulfonamide], the Ki in assay [1] was found to be 12.9 nM. Besides, in assay [2], the Ki was found to be 2.7 nM and the “Ki(D2)*/Ki(D3)*” value was 5.

Take `CC(C)c1ccc(S(=O)(=O)Nc2ccc(C3CCNC3)c(F)c2)cc1` (stereo not drawn) [Example 129, N-(3-Fluoro-4-pyrrolidin-3-yl-phenyl)-4-isopropyl-benzenesulfonamide]: the inhibition constant Ki in assay [1] is 106 nM. Further, in assay [2], the inhibitory constant (Ki) was 3.6 nM and the “Ki(D2)*/Ki(D3)*” value was 30.

Regarding `CCCN1CCC(c2ccc(NS(=O)(=O)c3ccc(C(C)C)cc3)cc2F)C1.Cl` (stereo not drawn) [Example 130, N-[3-Fluoro-4-(1-propyl-pyrrolidin-3-yl)-phenyl]-4-isopropyl-benzenesulfonamide, hydrochloride], the inhibition constant Ki stood at 8.5 nM in assay [1] and 0.52 nM in assay [2]. In assay [2], the “Ki(D2)*/Ki(D3)*” value came to 16.

As to `CCCN1CCC[C@@H](c2ccc(NS(=O)(=O)c3ccc(OC(F)(F)F)cc3)cc2)C1` [Example 133, N-[4-((S)-1-Propyl-piperidin-3-yl)-phenyl]-4-trifluoromethoxy-benzenesulfonamide], the Ki in assay [1] was found to be 193 nM. For the same molecule, in assay [2], the affinity corresponds to a Ki of 7.3 nM and the “Ki(D2)*/Ki(D3)*” value worked out at 26.

Regarding “N-[4-((S)-1-Propyl-pyrrolidin-3-yl)-phenyl]-4-pyrrol-1-yl-benzenesulfonamide [Example 74]”, the Ki in assay [1] turned out to be 10.5 nM. Moreover, in assay [2], the affinity corresponds to a Ki of 0.69 nM and the “Ki(D2)*/Ki(D3)*” value was determined as 15.
